The subject of assay [1] is OTUB1, OTUD1, OTUD2, OTUD3, OTUD6B, Cezanne, UCHL1 and USP16. Nature of the assay: In vitro DUB selectivity panel, ubiquitin substrate cleavage assay (whole panel). It counts as biochemical, human. As to conditions: at concentrations up to 150 μM. The method, then: After having determined the (1S,2S) configuration as the preferred stereoisomer, we turned our attention to the aromatic ring substituents to further improve the compound potency. Applying the same chemo-enzymatic strategy described above, a panel of aryl substituted trans (1S,2S) cyclopropane compounds 7–10 were generated having a methyl (7–9) or fluorine (10) substituent at different positions on the aromatic ring. The compounds were tested for their OTUB2 inhibitory potency using the assay as described above (Table 1, Figure S1A). […] Since these compounds are all covalent, irreversible inhibitors,[15] the IC50 depends on the incubation time. To get a better estimate of their respective inhibitory capacity, independent of incubation time, we determined the kinact/KI values of compounds 5–10 by pre-mixing the compounds with the substrate before adding OTUB2. […] The in vitro selectivity of LN5P45 for OTUB2 was assessed using a panel containing six DUBs from the OTU family, including its closest family members OTUB1, OTUD1, OTUD2, OTUD3, OTUD6B, and Cezanne, and two DUBs from outside this family, UCHL1 and USP16 (Figure S2, Table S1). […]

The test system of assay [2] is reactive cysteine sites in HeLa cells expressing GFP or GFP-OTUB2. Nature of the assay: SLC-ABPP profiling of LN5P45-reactive cysteines with DBIA probe. Type of assay: cell-based, Homo sapiens. As to conditions: 10 μM for 4 h, 10,670 cysteine peptides detected. The method, then:
Reduced disulfide bonds were alkylated using 20 mM iodoacetamide for 30 min in the dark at RT.

A further assay concerns the target T1, USP16 (Homo sapiens, UniProt Q9Y5T5).
T1 construct: USP16 FL (22-823); His-tag (N); made in house
Nature of the assay: In vitro DUB selectivity panel, ubiquitin substrate cleavage assay. It counts as biochemical. The note with it: marginal inhibition. As for the experimental part:
(§1) After having determined the (1S,2S) configuration as the preferred stereoisomer, we turned our attention to the aromatic ring substituents to further improve the compound potency. Applying the same chemo-enzymatic strategy described above, a panel of aryl substituted trans (1S,2S) cyclopropane compounds 7–10 were generated having a methyl (7–9) or fluorine (10) substituent at different positions on the aromatic ring. The compounds were tested for their OTUB2 inhibitory potency using the assay as described above (Table 1, Figure S1A). […] Since these compounds are all covalent, irreversible inhibitors,[15] the IC50 depends on the incubation time. To get a better estimate of their respective inhibitory capacity, independent of incubation time, we determined the kinact/KI values of compounds 5–10 by pre-mixing the compounds with the substrate before adding OTUB2. […] The in vitro selectivity of LN5P45 for OTUB2 was assessed using a panel containing six DUBs from the OTU family, including its closest family members OTUB1, OTUD1, OTUD2, OTUD3, OTUD6B, and Cezanne, and two DUBs from outside this family, UCHL1 and USP16 (Figure S2, Table S1).
(§2) The assays were performed in “nonbinding surface flat bottom low flange” black 384-well plates (Corning 3820) at room temperature in a buffer containing 50 mM Tris·HCl, 100 mM NaCl, pH 7.6, 2.0 mM cysteine, 1 mg/mL 3-[(3-cholamidopropyl)-dimethylammonio]propanesulfonic acid (CHAPS), and 0.5 mg/mL γ-globulins from bovine blood (BGG). All dispensing steps involving buffered solutions were performed on a Biotek MultiFlowFX dispenser. […] The compounds were dissolved in 10 mM and 1 mM DMSO stock solutions, and appropriate volumes were transferred to the empty plates using a Labcyte Echo acoustic dispenser to obtain a 12-point serial dilution. […] A 3 μL portion of the substrate (UbRhoMP, or K48-linked diUb FRET pair[35] for OTUB1) was added (final concentration 500 nM), and the increase in fluorescence over time was recorded using a BMG Labtech PHERAstar plate reader (excitation 487 nm, emission 535 nm).

The target in another assay is T2, UCHL1 (Homo sapiens, UniProt P09936).
T2 construct: UCHL1 FL (1-223); made in house
T2 sequence (P09936 1-223): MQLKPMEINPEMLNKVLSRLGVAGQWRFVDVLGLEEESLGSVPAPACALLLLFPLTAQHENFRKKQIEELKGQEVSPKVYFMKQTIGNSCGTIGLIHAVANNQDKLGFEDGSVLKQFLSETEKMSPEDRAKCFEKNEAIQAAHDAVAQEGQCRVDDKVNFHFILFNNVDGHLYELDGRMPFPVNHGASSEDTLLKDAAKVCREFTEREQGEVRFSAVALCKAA
The assay is described as above. Type of assay: biochemical. The note with it: marginal inhibition. The method, then: as §1, §2

The target in the next assay is T3, OTUD3 (Homo sapiens, UniProt Q5T2D3).
T3 construct: OTUD3 FL (1-398) GST, cleaved Q5T2D3; GST (cleaved yes); purchased Ubiquigent DUBscan Kit 67-0006-001
T3 sequence (Q5T2D3 1-398): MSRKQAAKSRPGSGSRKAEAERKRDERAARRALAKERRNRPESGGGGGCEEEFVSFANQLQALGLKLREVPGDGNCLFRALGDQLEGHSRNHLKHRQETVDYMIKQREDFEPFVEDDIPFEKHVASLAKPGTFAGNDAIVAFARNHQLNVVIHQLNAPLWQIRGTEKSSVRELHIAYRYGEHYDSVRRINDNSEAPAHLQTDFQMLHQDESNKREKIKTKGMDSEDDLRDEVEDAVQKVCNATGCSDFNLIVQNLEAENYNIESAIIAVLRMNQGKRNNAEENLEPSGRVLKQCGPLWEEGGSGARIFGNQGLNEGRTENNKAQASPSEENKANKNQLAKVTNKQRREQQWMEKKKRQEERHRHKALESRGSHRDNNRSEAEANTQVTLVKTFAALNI
The assay is described as above. Type of assay: biochemical. The method, then:
as §1, §2

Molecules are shown by their SMILES.

T1 sequence (Q9Y5T5 22-823): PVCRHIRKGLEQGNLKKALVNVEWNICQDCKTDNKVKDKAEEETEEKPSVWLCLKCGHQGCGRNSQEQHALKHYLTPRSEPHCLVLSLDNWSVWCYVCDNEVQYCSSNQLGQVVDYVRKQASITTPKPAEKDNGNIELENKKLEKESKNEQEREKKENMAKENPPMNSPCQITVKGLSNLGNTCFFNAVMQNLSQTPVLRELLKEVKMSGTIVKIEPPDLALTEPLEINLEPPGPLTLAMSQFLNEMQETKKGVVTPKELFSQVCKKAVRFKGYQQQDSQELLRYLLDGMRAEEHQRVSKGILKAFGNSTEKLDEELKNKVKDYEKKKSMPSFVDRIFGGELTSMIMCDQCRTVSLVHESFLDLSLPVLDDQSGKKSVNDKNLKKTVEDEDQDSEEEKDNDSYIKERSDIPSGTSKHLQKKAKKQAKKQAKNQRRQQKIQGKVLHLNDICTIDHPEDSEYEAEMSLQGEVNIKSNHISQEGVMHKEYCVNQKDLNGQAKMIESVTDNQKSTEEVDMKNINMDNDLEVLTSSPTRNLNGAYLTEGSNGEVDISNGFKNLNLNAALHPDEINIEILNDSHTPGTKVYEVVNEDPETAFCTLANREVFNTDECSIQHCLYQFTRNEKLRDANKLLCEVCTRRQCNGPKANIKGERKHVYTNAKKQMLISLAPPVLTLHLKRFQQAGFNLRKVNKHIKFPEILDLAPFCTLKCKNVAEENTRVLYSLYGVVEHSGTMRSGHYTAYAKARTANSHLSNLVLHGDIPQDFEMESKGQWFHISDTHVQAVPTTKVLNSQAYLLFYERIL

By IC50 is commonly meant the concentration that inhibits the measured activity by half. Read a low IC50 as greater potency. With `Cc1cccc([C@H]2C[C@@H]2C(=O)NNC(=O)CCl)c1` [Compound 8], in assay [1], the “Inhibition of most DUBs of the panel” value is “not inhibited”. In addition, the “Number of proteins not involved in ubiquitination with inhibited DBIA probe binding” value in assay [2] was “seven”. The figures for the IC50 against USP16, against UCHL1 and against OTUD3 were > 100 µM, > 100 µM and 56 µM, respectively.

(Values after article PMC10510154 (ACS Chemical Biology, 2023).)
